US20100111838A1, “BRAIN-LOCALIZING POLYPEPTIDES COMPRISING A MULTIVALENT BINDING MOIETY AND IMPROVED METABOLIC STABILITY” (Proteus Sciences Co., Ltd, priority 2007, published 2010)
Where a SMILES comes first, the peptide text is derived from it. The star is where a group is joined. 5FAM = O=C1OC2(c3ccc(O)cc3Oc3cc(O)ccc32)c2ccc(C(=O)*)cc21

Test: In vitro metabolism test of fluorescein-labeled peptides in liver extract solution (HPLC)
Assay type: in vitro ADME
Details: mouse liver extract solution, 37° C.
Description: To compare the degree of improved stability observed in [C]K004K, an experiment system that uses a fluorescent pigment as a tracer instead of an isotope labeling for in vitro evaluation using a mouse liver homogenate was produced.
Add two parts of Hanks' solution to one part of mouse liver, and homogenize ↓ Centrifuge and collect supernatant ↓ Add five parts of Hanks' solution (liver extract solution) ↓ Add 5 μL of peptide to 245 μL of liver extract solution ↓
↓ Take 50 μL of sample 0, 5, 30, 60, and 120 minutes after incubation ↓ Add 200 μL, of 70% ethanol (pre-cooled at −30° C.) and then vortex ↓ Add 500 μL of chloroform (pre-cooled at −30° C.) and then vigorously vortex ↓ Centrifuge and collect supernatant ↓ Add an equivalent amount of DMF and then vortex ↓ Centrifuge and collect supernatant ↓ HPLC analysis using Co-sense
[C](Flu)-C004C: A peptide cyclized by adding C to both ends of the 004 sequence and forming a disulfide bond between them was labeled with fluorescein at its N-terminus. [C](Flu)-K004C: A peptide cyclized by adding K to the N terminus and C to the C terminus of the 004 sequence and forming a peptide bond between the N- and C-termini was labeled with fluorescein at its N terminus. [C](Flu)-K004K: A peptide cyclized by adding K to both ends of the 004 sequence and forming a peptide bond between the N- and C-termini was labeled with fluorescein at its N terminus. […]

With CC(C)C[C@@H]1NC(=O)[C@H](Cc2c[nH]cn2)NC(=O)[C@H](CCCNC(=N)N)NC(=O)[C@H](C(C)C)NC(=O)[C@H](C(C)C)NC(=O)[C@H](CCCCNC(=O)c2ccc3c(c2)C(=O)OC32c3ccc(O)cc3Oc3cc(O)ccc32)NC(=O)[C@H](CCCCN)NC(=O)[C@H](CCC(N)=O)NC(=O)[C@H](CCC(N)=O)NC1=O [[C](Flu)-K004K] (cyclo(K(5FAM)VVRHLQQK)) the “resistance to degradation in liver extract solution (comparison)” value was “strongest resistance to degradation”.
